Where a name gives a salt, the structure may show the parent alone. Read-outs that look alike come from different tables or passages of the source.
Experiments:
[1] = target: T1, F876L mutant Androgen Receptor (AR-F876L) (Homo sapiens, UniProt P10275, F877L); test: AR reporter assay, LNCaP-AR-F876L AG (agonist mode); type: cell-based; details: for Emax: read-out: LNCaP-AR-F876L AG MAX % Stim
T1 construct: expressed in transfected cells; host or cells: LNCaP
T1 sequence (P10275 1-920 F877L): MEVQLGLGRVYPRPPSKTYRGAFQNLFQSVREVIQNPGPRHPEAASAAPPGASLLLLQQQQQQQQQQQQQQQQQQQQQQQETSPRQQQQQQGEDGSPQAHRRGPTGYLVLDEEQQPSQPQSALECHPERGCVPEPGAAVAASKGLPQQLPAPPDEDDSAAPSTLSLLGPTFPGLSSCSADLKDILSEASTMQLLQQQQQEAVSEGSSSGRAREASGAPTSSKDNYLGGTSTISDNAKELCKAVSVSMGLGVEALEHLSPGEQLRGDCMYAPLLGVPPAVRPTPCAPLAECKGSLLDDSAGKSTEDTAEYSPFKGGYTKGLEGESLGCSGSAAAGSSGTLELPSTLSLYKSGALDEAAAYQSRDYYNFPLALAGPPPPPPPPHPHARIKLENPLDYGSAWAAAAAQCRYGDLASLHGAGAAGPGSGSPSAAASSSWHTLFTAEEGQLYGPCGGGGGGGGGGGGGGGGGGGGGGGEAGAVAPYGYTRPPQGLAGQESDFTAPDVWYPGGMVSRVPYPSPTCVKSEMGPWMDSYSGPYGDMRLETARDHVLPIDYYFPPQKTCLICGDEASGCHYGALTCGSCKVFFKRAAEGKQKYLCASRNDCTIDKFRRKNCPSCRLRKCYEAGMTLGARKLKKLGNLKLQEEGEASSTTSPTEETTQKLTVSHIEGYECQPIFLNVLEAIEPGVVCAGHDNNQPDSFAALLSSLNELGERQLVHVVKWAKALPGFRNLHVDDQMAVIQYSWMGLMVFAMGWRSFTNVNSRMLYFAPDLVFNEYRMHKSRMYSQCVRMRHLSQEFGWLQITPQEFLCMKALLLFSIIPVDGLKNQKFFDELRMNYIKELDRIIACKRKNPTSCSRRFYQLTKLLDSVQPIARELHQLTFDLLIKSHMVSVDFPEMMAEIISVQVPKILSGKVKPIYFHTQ
Source text: (§1) LNCaP AR (cs) and LNCaP F876L luciferase cell lines were generated by transduction of each cell line (description of cell line generation Joseph J D, Lu N, Qian J, Sensintaffar J, Shao G, Brigham D, Moon M, Maneval E C, Chen I, Darimont B, Hager J H. A clinically relevant androgen receptor mutation confers resistance to second-generation antiandrogens enzalutamide and ARN-509. Cancer Discov 2013; 3:1020-1029) with an Androgen Response Element Firefly Luciferase lentiviral construct at an MOI (multiplicity of infection) of 50 following the manufacturer's instructions (Qiagen). A stable pooled-population cell line was generated using puromycin (Life Technologies) selection at 1:10,000 v/v. The protocol below was used for both cell lines and for testing of the compounds of Formula (I) of the present invention.
(§2) LNCaP cells were grown to about 80% confluence, media removed and cells rinsed in Hank's balanced salt solution prior to separation from the plate with 0.05% Trypsin EDTA. Cells were lifted and trypsin negated in complete CSS (charcoal stripped serum) culture media. CSS was maintained on cells for 24 h prior to assay, at which time 5,000 cells/[…] were seeded in Greiner 384 well White/White Tissue Culture Treated Plates and incubated for a further 1-2 hours at 37° C., 5% CO2, prior to addition of 10 μL of 4× Test Compounds (compounds described herein) or Assay Controls (all diluted in complete media containing 10% css). A further 10 μL of 4× R-1881 Agonist Challenge (antagonist assay) or Buffer (agonist assay) was then added (all diluted in complete media containing 10% css). Agonist challenge was at 400 pM for WT assay and 600 pM for F876L assay. Plates containing cells and compounds herein were incubated for a further 20-24 hours at 37° C., 5% CO2 before addition of 40 μL/well of Steady-Glo Luciferase Assay System Reagent (Promega#E2520). After 1 h, plates were read for luminescence on a BMG Pherastar.
((Sample RLU−Ave Low Control RLU[DMSO/Buffer])/(Ave High Control RLU [1 μM R-1881]—Ave Low Control RLU[DMSO/Buffer]))*100.
(§3) EC/IC50 calculations were achieved utilizing calculated RLU data and data fitting macros. Data were fit using least-squares methods to the following formula: […]
(§4) As used herein: • pIC50 is defined as −Log10(IC50 expressed in [Molar]). • pEC50 is defined as −Log10(EC50 expressed in [Molar]). • MAX % Inh is defined as the maximum % inhibition of R1881 control response observed for a compound over the tested concentration range. • MAX % Stim is defined as the maximum % stimulation (agonist response) observed for a compound over the tested concentration range. • LNCaP-AR-wt ANT refers to the reporter assay using LNCaP cells stably transfected with the Androgen Response Element Firefly Luciferase lentiviral construct and wild-type Androgen Receptor (AR-wt) in Antagonist mode. • LNCaP-AR-wt AG refers to the reporter assay using LNCaP cells stably transfected with the Androgen Response Element Firefly Luciferase lentiviral construct and wild-type Androgen Receptor (AR-wt) in Agonist mode. • LNCaP-AR-F876L ANT refers to the reporter assay using LNCaP cells stably transfected with the Androgen Response Element Firefly Luciferase lentiviral construct and F876L mutant Androgen Receptor (AR-F876L) in Antagonist mode. • LNCaP-AR-F876L AG refers to the reporter assay using LNCaP cells stably transfected with the Androgen Response Element Firefly Luciferase lentiviral construct and F876L mutant Androgen Receptor (AR-F876L) in Agonist mode.

[2] = target: T1, F876L mutant Androgen Receptor (AR-F876L); test: AR reporter assay, LNCaP-AR-F876L ANT (antagonist mode); type: cell-based; details: for Emax: read-out: LNCaP-AR-F876L ANT MAX % Inh
Source text: as §1, §2
Agonist challenge: R-1881 (Metribolone)—Agonist
Antagonist control (low control): 5-(5-(4-((1-Methylpiperidin-4-yl)oxy)phenyl)-8-oxo-6-thioxo-5,7-diazaspiro[3.4]octan-7-yl)-3-(trifluoromethyl)picolinonitrile (WO 2011/103202, EXAMPLE 19, Compound 129, CAS #1332390-06-3).
(1−(Sample RLU−Ave Low Control RLU[10 μM Antagonist Control])/(Ave High Control RLU [400 pM R-1881]−Ave Low Control RLU[10 μM Antagonist Control]))*100.
as §3, §4

Compound | EC50 [1] [nM] | Emax [1] [%] | IC50 [2] [nM] | Emax [2] [%] | IC50 ([2]; antagonist mode, 600 pM R-1881 challenge, luciferase reporter, -Log10(IC50 in Molar), read-out: LNCaP-AR-F876L ANT pIC50 (converted)) [nM]
CC1(C)C(=O)N(c2ccc(C#N)c(C(F)(F)F)c2)C(=S)N1c1ccc(OC2CCNCC2)cc1 [Compound 1, 4-(4,4-Dimethyl-5-oxo-3-(4-(piperidin-4-yloxy)phenyl)-2-thioxoimidazolidin-1-yl)-2-(trifluoromethyl)benzonitrile] | > 15100 | -0.1 | 41.7 | 102 | –
CN1CCC(Oc2ccc(N3C(=S)N(c4ccc(C#N)c(C(F)(F)F)c4)C(=O)C3(C)C)cc2)CC1 [Compound 2, 4-(4,4-Dimethyl-3-(4-((1-methylpiperidin-4-yl)oxy)phenyl)-5-oxo-2-thioxoimidazolidin-1-yl)-2-(trifluoromethyl)benzonitrile hydrochloride] | > 15100 | 0.1 | 69.2 | 101 | –
CC1(C)C(=O)N(c2ccc(C#N)c(C(F)(F)F)c2)C(=S)N1c1ccc(OC2CCNCC2)nc1 [Compound 3, 4-(4,4-Dimethyl-5-oxo-3-(6-(piperidin-4-yloxy)pyridin-3-yl)-2-thioxoimidazolidin-1-yl)-2-(trifluoromethyl)benzonitrile hydrochloride] | > 15100 | 0.3 | 40.7 | 102 | –
CN1CCC(Oc2ccc(N3C(=S)N(c4ccc(C#N)c(C(F)(F)F)c4)C(=O)C3(C)C)cn2)CC1 [Compound 4, 4-(4,4-Dimethyl-3-(6-((1-methylpiperidin-4-yl)oxy)pyridin-3-yl)-5-oxo-2-thioxoimidazolidin-1-yl)-2-(trifluoromethyl)benzonitrile hydrochloride] | > 15100 | 0.1 | 83.2 | 102 | –
CC1(C)C(=O)N(c2ccc(C#N)c(C(F)(F)F)c2)C(=S)N1c1cnc(OC2CCNCC2)nc1 [Compound 5, 4-(4,4-Dimethyl-5-oxo-3-(2-(piperidin-4-yloxy)pyrimidin-5-yl)-2-thioxoimidazolidin-1-yl)-2-(trifluoromethyl)benzonitrile] | > 15100 | 0 | 229 | 101 | –
CN1CCC(Oc2ncc(N3C(=S)N(c4ccc(C#N)c(C(F)(F)F)c4)C(=O)C3(C)C)cn2)CC1 [Compound 6, 4-(4,4-Dimethyl-3-(2-((1-methylpiperidin-4-yl)oxy)pyrimidin-5-yl)-5-oxo-2-thioxoimidazolidin-1-yl)-2-(trifluoromethyl)benzonitrile] | > 15100 | -0.1 | – | 101 | 135
CC1(C)C(=O)N(c2ccc(C#N)c(Cl)c2)C(=S)N1c1ccc(OC2CCNCC2)cc1 [Compound 7, 2-Chloro-4-(4,4-dimethyl-5-oxo-3-(4-(piperidin-4-yloxy)phenyl)-2-thioxoimidazolidin-1-yl)benzonitrile hydrochloride] | > 15100 | -0.1 | 38 | 101 | –
CN1CCC(Oc2ccc(N3C(=S)N(c4ccc(C#N)c(Cl)c4)C(=O)C3(C)C)cc2)CC1 [Compound 8, 2-Chloro-4-(4,4-dimethyl-3-(4-((1-methylpiperidin-4-yl)oxy)phenyl)-5-oxo-2-thioxoimidazolidin-1-yl)benzonitrile hydrochloride] | > 15100 | 0.1 | 58.9 | 101 | –
CC1(C)C(=O)N(c2ccc(C#N)c(Cl)c2)C(=S)N1c1ccc(OC2CCNCC2)nc1 [Compound 9, 2-Chloro-4-(4,4-dimethyl-5-oxo-3-(6-(piperidin-4-yloxy)pyridin-3-yl)-2-thioxoimidazolidin-1-yl)benzonitrile hydrochloride] | > 15100 | 0 | 38.9 | 100 | –
CN1CCC(Oc2ccc(N3C(=S)N(c4ccc(C#N)c(Cl)c4)C(=O)C3(C)C)cn2)CC1 [Compound 10, 2-Chloro-4-(4,4-dimethyl-3-(6-((1-methylpiperidin-4-yl)oxy)pyridin-3-yl)-5-oxo-2-thioxoimidazolidin-1-yl)benzonitrile hydrochloride] | > 15100 | 0.1 | 85.1 | 101 | –
N#Cc1ccc(N2C(=O)C3(CCC3)N(c3ccc(OC4CCNCC4)cc3)C2=S)cc1C(F)(F)F [Compound 11, 4-(8-Oxo-5-(4-(piperidin-4-yloxy)phenyl)-6-thioxo-5,7-diazaspiro[3.4]octan-7-yl)-2-(trifluoromethyl)benzonitrile] | > 15100 | 0.1 | 107 | 102 | –
CN1CCC(Oc2ccc(N3C(=S)N(c4ccc(C#N)c(C(F)(F)F)c4)C(=O)C34CCC4)cc2)CC1 [Compound 12, 4-(5-(4-((1-Methylpiperidin-4-yl)oxy)phenyl)-8-oxo-6-thioxo-5,7-diazaspiro[3.4]octan-7-yl)-2-(trifluoromethyl)benzonitrile] | > 15100 | 0.2 | 166 | 101 | –
N#Cc1ccc(N2C(=O)C3(CCC3)N(c3ccc(OC4CCNCC4)nc3)C2=S)cc1C(F)(F)F [Compound 13, 4-(8-Oxo-5-(6-(piperidin-4-yloxy)pyridin-3-yl)-6-thioxo-5,7-diazaspiro[3.4]octan-7-yl)-2-(trifluoromethyl)benzonitrile hydrochloride] | > 15100 | 0 | 57.5 | 102 | –
CN1CCC(Oc2ccc(N3C(=S)N(c4ccc(C#N)c(C(F)(F)F)c4)C(=O)C34CCC4)cn2)CC1 [Compound 14, 4-(5-(6-((1-Methylpiperidin-4-yl)oxy)pyridin-3-yl)-8-oxo-6-thioxo-5,7-diazaspiro[3.4]octan-7-yl)-2-(trifluoromethyl)benzonitrile] | > 15100 | 0.1 | 57.5 | 101 | –

Reference: patent US20190337924A1, “SUBSTITUTED HYDANTOIN AND THIOHYDANTOIN DERIVATIVES AS ANDROGEN RECEPTOR ANTAGONISTS” (Janssen Pharmaceutica NV, priority 2016, published 2019)
